# Experimental data reported in ChEMBL document CHEMBL5465560, “Selectivity Literature for EUbOPEN Chemogenomic Library” (2024).
# Legend:
# [1] = target: Serine/threonine-protein kinase 32C (Homo sapiens) (UniProt Q86UX6); experiment: Selectivity interaction (KinomeScan (DiscoverX)) EUB0000229b STK32C; conditions: at 10 µM
# [2] = target: Ephrin type-A receptor 2 (Homo sapiens) (UniProt P29317); experiment: Selectivity interaction (KinomeScan (DiscoverX)) EUB0001079a EPHA2; conditions: at 1 µM
# [3] = target: T1, Serine/threonine-protein kinase BRSK2 (Homo sapiens) (UniProt Q8IWQ3); experiment: Selectivity interaction (KinomeScan (DiscoverX)) EUB0001079a BRSK2; conditions: at 1 µM
# T1 sequence (whole entry): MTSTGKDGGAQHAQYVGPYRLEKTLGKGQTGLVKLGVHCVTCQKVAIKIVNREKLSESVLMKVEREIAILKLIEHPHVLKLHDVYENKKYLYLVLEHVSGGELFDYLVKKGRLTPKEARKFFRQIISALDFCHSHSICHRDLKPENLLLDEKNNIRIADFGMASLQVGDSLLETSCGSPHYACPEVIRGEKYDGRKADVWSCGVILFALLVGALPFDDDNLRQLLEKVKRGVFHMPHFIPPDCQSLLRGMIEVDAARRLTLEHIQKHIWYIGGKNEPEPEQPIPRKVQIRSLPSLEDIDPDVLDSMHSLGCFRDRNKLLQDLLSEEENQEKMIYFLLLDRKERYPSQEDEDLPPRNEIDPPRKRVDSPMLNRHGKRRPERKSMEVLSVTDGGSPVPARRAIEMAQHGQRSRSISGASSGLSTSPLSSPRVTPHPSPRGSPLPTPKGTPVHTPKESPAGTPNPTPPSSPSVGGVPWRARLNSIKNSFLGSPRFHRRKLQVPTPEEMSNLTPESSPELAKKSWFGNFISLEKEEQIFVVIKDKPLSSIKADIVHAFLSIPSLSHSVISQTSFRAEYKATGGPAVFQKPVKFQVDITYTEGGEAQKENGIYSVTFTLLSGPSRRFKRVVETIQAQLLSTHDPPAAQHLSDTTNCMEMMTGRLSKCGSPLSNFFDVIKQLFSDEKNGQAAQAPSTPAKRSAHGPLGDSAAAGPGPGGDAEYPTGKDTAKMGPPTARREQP
# [4] = target: T2, Cytoplasmic tyrosine-protein kinase BMX (Homo sapiens) (UniProt P51813); experiment: Selectivity interaction (KinomeScan (DiscoverX)) EUB0001079a BMX; conditions: at 1 µM
# T2 sequence (whole entry): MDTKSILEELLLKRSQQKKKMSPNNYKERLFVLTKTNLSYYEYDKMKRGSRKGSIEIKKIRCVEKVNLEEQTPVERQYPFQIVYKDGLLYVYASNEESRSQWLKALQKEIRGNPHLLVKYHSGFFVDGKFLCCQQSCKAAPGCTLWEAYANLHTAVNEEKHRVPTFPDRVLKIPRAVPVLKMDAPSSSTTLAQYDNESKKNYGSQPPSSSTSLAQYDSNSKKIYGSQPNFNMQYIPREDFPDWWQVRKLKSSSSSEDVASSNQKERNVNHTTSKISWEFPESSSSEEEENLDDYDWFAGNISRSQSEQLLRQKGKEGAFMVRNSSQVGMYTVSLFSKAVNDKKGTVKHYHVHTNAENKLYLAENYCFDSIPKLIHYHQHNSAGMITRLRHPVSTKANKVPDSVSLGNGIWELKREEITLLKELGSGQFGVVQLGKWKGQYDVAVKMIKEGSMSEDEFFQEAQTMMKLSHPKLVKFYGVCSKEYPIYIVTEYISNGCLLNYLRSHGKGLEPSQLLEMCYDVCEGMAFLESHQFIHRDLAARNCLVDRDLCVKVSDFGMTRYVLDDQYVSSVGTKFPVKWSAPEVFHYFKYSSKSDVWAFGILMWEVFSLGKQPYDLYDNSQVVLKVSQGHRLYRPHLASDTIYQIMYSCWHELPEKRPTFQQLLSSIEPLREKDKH
# [5] = target: T3, Tyrosine-protein kinase ITK/TSK (Homo sapiens) (UniProt Q08881); experiment: Selectivity interaction (KinomeScan (DiscoverX)) EUB0000666a ITK; conditions: at 10 µM
# T3 sequence (whole entry): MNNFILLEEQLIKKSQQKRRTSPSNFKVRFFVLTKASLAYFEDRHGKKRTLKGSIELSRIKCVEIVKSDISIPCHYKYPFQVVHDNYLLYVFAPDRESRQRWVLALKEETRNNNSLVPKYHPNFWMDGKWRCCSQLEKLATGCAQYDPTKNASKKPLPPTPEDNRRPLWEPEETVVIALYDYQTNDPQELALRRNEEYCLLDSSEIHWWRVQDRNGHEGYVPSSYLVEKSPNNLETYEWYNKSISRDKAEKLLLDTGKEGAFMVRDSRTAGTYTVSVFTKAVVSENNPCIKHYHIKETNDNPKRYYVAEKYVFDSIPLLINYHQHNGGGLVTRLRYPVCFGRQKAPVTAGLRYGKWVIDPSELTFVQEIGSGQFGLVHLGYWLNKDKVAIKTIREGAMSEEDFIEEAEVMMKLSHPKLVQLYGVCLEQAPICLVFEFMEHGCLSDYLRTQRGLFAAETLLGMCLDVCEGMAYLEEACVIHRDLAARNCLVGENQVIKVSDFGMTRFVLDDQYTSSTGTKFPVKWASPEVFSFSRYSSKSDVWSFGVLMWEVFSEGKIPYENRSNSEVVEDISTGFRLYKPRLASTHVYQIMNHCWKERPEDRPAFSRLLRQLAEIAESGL
# [6] = target: Calcium/calmodulin-dependent protein kinase type II subunit delta (Homo sapiens) (UniProt Q13557); conditions: at 10 µM
# Sequence of Calcium/calmodulin-dependent protein kinase type II subunit delta (Homo sapiens) (Q13557 whole entry): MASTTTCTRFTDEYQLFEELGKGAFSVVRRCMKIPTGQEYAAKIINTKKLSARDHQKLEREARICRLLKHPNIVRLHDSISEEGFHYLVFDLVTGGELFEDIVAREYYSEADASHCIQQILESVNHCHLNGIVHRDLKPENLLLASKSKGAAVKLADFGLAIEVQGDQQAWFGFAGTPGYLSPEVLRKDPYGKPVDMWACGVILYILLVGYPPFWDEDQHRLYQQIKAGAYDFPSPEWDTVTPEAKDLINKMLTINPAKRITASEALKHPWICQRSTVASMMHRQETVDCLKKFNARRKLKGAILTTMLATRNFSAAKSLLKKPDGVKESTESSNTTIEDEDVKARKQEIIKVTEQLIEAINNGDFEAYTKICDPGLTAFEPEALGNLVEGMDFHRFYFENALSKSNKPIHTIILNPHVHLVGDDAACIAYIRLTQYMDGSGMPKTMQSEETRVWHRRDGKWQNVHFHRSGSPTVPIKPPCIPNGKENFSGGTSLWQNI
# [7] = target: ALK tyrosine kinase receptor (Homo sapiens, UniProt Q9UM73); experiment: Selectivity interaction (KinomeScan (DiscoverX)) EUB0001619a ALK; conditions: at 1 µM
# Sequence of ALK tyrosine kinase receptor (Q9UM73 19-1620 limits assumed): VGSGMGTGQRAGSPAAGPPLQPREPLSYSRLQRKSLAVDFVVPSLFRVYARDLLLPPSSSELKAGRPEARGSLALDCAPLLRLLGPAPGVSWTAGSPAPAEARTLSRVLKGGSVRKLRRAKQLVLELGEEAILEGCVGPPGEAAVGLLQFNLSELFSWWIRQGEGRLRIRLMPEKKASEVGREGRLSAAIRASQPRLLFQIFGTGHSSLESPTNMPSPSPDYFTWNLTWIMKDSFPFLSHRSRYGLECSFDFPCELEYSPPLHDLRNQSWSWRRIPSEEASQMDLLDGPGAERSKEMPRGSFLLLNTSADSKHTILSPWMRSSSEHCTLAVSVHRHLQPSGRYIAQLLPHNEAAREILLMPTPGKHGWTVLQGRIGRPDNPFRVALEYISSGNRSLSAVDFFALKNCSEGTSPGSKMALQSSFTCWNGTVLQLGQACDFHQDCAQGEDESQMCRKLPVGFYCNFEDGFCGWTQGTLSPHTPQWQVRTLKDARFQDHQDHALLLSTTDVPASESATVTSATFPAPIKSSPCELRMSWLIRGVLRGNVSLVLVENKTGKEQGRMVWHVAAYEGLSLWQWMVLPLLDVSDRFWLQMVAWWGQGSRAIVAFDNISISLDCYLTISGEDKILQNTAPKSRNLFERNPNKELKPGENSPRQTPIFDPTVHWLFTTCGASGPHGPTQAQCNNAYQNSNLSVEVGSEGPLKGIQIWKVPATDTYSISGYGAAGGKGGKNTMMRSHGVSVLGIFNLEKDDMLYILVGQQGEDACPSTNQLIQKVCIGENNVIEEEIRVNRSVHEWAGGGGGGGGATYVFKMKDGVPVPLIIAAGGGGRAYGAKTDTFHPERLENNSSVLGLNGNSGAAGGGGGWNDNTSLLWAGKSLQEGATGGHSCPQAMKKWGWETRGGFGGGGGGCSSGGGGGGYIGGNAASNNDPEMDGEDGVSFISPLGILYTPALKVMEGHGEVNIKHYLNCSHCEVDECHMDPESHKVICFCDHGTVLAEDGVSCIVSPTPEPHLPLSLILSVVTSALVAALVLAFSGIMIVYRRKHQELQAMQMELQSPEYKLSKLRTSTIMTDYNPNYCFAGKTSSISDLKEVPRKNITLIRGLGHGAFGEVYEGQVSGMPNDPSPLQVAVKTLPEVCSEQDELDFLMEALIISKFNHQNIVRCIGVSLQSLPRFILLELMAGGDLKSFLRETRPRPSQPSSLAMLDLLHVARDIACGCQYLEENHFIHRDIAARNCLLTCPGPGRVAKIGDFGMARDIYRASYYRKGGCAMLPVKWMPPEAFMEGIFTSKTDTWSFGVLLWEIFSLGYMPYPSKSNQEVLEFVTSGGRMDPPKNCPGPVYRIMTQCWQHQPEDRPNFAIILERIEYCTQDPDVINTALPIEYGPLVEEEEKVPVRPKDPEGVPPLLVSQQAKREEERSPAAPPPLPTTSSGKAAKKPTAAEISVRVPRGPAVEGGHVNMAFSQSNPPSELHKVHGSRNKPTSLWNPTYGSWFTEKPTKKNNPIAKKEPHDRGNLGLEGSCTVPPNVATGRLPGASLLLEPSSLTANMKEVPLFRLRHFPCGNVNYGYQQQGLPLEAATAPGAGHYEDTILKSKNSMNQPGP
# [8] = target: Dual specificity mitogen-activated protein kinase kinase 1 (Homo sapiens, UniProt Q02750); experiment: Selectivity interaction (ActivX KiNativ screen (kinase selectivity in THP-1 cell lysates)) EUB0000639a MAP2K1; type: subcellular; conditions: lysate, at 0.2 µM
# Sequence of Dual specificity mitogen-activated protein kinase kinase 1 (Q02750 whole entry): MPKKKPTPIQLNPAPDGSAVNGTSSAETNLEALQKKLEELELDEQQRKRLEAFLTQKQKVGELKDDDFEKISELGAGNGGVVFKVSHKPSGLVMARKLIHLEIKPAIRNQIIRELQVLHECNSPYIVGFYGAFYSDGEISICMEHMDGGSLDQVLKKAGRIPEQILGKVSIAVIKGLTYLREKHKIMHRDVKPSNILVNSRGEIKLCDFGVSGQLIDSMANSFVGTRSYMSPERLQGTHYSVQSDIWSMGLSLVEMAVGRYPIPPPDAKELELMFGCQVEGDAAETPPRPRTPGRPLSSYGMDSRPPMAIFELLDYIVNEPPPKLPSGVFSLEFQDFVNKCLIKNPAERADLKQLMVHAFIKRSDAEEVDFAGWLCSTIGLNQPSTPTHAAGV
# Sequence of Serine/threonine-protein kinase 32C (Homo sapiens) (Q86UX6 whole entry): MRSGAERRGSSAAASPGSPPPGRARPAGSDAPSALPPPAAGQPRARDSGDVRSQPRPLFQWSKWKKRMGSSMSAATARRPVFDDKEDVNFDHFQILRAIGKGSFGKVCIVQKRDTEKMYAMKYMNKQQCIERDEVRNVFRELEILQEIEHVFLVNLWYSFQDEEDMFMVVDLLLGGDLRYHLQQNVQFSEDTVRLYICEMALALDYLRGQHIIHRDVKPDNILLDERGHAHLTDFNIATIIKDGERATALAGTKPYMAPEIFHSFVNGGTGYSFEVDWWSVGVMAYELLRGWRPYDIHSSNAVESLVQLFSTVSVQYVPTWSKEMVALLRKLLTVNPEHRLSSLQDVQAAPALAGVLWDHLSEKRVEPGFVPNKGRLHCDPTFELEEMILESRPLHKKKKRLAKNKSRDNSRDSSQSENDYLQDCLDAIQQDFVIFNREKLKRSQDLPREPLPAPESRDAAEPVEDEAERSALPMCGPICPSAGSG
# Sequence of Ephrin type-A receptor 2 (Homo sapiens) (P29317 whole entry): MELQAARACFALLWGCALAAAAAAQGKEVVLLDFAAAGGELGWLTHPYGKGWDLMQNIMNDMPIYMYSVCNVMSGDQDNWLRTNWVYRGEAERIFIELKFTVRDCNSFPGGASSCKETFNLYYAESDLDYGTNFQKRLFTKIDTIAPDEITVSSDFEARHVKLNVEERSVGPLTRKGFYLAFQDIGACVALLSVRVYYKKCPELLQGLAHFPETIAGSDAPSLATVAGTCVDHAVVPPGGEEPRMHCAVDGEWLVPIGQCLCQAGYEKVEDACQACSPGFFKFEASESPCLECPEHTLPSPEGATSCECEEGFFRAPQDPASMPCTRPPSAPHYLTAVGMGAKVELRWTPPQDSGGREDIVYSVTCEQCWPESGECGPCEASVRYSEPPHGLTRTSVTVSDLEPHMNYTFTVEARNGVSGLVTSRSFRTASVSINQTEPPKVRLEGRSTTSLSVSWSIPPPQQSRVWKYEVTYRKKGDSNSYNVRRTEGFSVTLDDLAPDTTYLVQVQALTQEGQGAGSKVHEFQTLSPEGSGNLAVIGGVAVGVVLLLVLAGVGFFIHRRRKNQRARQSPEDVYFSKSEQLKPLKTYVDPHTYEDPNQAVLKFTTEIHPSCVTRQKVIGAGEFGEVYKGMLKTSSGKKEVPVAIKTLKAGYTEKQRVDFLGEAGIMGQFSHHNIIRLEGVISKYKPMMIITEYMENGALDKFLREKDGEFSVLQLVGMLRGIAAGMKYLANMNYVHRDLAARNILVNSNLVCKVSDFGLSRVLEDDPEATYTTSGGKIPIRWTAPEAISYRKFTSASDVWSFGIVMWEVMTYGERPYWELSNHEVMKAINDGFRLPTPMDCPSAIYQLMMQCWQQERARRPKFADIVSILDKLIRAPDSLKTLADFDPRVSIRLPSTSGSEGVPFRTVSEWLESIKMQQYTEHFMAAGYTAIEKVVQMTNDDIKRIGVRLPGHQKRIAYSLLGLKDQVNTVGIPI
compound,measurement,setting,value
COc1cc(N(C)c2ccnc3ccc(C(F)(F)F)cc23)cc(OC)c1OC,% binding,[1],99%
Nc1cnc(N2CCc3cc(S(=O)(=O)Nc4c(F)cc(Cl)cc4F)cc(N4CCCC4=O)c32)nc1 [TP-020n],% of control,[2],100%
same,% of control,[3],80%
same,% of control,[4],100%
O=C(NOC[C@H](O)CO)c1ccc(F)c(F)c1Nc1ccc(I)cc1F,% of control,[5],97%
Cc1cc([C@@H](C)Nc2ccccc2C(=O)O)c2nc(N3CCOCC3)cc(=O)n2c1 [AZD-6482],% of control,[6],95%
N#Cc1cccc(-c2c[nH]c3ncnc(N4CCOCC4)c23)c1,% of control,[7],100%
CC[C@@H]1[C@H](F)C(=O)N[C@@H]1COc1nccc2cc(C(N)=O)c(OC)cc12 [ZIMLOVISERTIB],% of inhibition,[8],3.9%
